Values quoted from earlier work in US20220054404A1, “SUBCUTANEOUS ADMINISTRATION OF NANOPARTICLES COMPRISING AN MTOR INHIBITOR AND ALBUMIN FOR TREATMENT OF DISEASES” (Abraxis BioScience, LLC, priority 2019, published 2022).

Test system: ABCB1/ABCG2

SMILES: COc1ccc(COc2cc3oc(=O)c4cc(C(C)O)ccc4c3cc2OC)cc1 (stereo not shown) [Palomid 529]
- Affinity for ABCB1/ABCG2: lacks affinity for ABCB1/ABCG2
